{"source": "patent US9770451B2", "about": "“Composition including ATM inhibitor for reducing cellular senescence and use of the composition” (Samsung Electronics Co., Ltd., priority 2014, dated 2017)", "assay_type_in_all_cases": "cell-based, human", "key": {"[1]": {"system": "progeria senescent fibroblasts (passage 17)", "assay": "SA-β-galactosidase staining", "conditions": "CP-466722 0.1 μM, 4 weeks"}, "[2]": {"system": "progeria senescent fibroblasts (passage 17)", "assay": "Lipofuscin autofluorescence (FACS)", "conditions": "CP-466722 0.1 μM, 4 weeks", "protocol": "In addition, the amounts of lipofuscin in the cells cultured as described above were measured. The progeria senescent fibroblasts (passage 17) that became senescent in the presence of KU-60019 (0.5 μM) were cultured in a CO2 incubator at a temperature of 37° C. for 4 weeks. The medium was replaced by a fresh medium containing KU-60019 (0.5 μM), once every 4 days. Lipofuscin is characterized by having autofluorescence capability, and in this regard, the cultured cells were irradiated with a wavelength of 488 nm by using a FACSCaliber (Beckton Dickinson), and then, measured with radiation emitted from a wavelength of 520 nm. The results were analyzed using Cell Quest 3.2 software (Beckton Dickinson). FIG. 11 is a graph showing lipofuscin measured in the cells that were cultured in the presence of KU-60019.\nIn addition, the amounts of lipofuscin in the cells cultured as described above were measured. […] Lipofuscin is characterized by having autofluorescence capability, and in this regard, the cultured cells were irradiated with a wavelength of 488 nm by using a FACSCaliber (Beckton Dickinson), and then, measured with radiation emitted from a wavelength of 520 nm. The results were analyzed using Cell Quest 3.2 software (Beckton Dickinson)."}, "[3]": {"system": "progeria senescent fibroblasts (passage 17)", "assay": "ROS measurement (MitoSOX Red)", "conditions": "CP-466722 0.1 μM", "protocol": "ROS was measured according to the protocol of the manufacturer using a 0.2 μM MitoSOX™ Red reagent (Invitrogen, M36008). In detail, 2 μL of the reagent that was stored in a 1,000-fold concentration was added to a 2 ml medium sufficiently enough to cover the cultured cells that were attached to a coverslip. While being protected from light, the cells were further incubated at a temperature of 37° C. for 30 minutes. The cultured cells were irradiated with a wavelength of 520 nm by using a FACSCaliber (Beckton Dickinson), and then, measured with radiation emitted from a wavelength of 580 nm. The results were analyzed using Cell Quest 3.2 software (Beckton Dickinson). FIG. 12 is a graph showing results of measuring ROS (A) and mitochondrial membrane potential (B) of the progeria senescent fibroblasts (passage 17) that were cultured in the presence of an ATM-kinase inhibitor KU-60019 (0.5 μM).\nROS was measured according to the protocol of the manufacturer using a 0.2 μM MitoSOX™ Red reagent (Invitrogen, M36008). […] The cultured cells were irradiated with a wavelength of 520 nm by using a FACSCaliber (Beckton Dickinson), and then, measured with radiation emitted from a wavelength of 580 nm. The results were analyzed using Cell Quest 3.2 software (Beckton Dickinson)."}, "[4]": {"system": "progeria senescent fibroblasts (passage 17)", "assay": "Morphological change by microscopy", "conditions": "CP-466722 0.1 μM", "protocol": "Progeria senescent fibroblasts (Hutchinson-Gilford Progeria Syndrome Skin Fibroblasts, Coriell Cell Repositories, AG03198 B) were inoculated into a DMEM medium containing 10% FBS, 100 units/ml of penicillin, and 100 μg/ml of streptomycin (wherein all antibiotics were purchased from Gibco-BRL, Grand Island, N.Y.), and then, cultured in a 5% CO2 incubator at a temperature of 37° C. When progeria senescent cells were grown to about 85% confluency in a plate, the progeria senescent cells were subjected to subculture. The early subculture was carried out at a split ratio of 1:4, and the late subculture was carried out at a split ratio of 1:2. When the cell doubling time was 14 days, the cells were considered to be progeria senescent fibroblasts (passages 16 to 17).\n[…] The medium was replaced by a fresh medium containing KU-60019 (0.5 μM), once every 4 days. In addition, as a negative control group, the cells were cultured under the same conditions as described above, except that a medium used herein contained DMSO (0.05 (v/v) %).\nIn FIG. 10, a human dermal fibroblast was cultured in the presence of the ATM-kinase inhibitor KU-60019 (0.5 μM), and then, the cell shapes were photographed using a microscope. To provide a better view of the cells formed in a dashed square a, a dashed square a1 was randomly selected, and then, the cells are shown enlarged in the dashed square a1. […]"}}}
{"smiles": "COc1cc2ncnc(-n3nc(-c4ccccn4)nc3N)c2cc1OC", "note": "[CP-466722, 2-(6,7-dimethoxyquinazolin-4-yl)-5-(pyridin-2-yl)-2H-1,2,4-triazol-3-amine]", "values": [{"measurement": "number of cells that express β-galactosidase vs DMSO control", "setting": "[1]", "result": "significantly decreased"}, {"measurement": "amount of lipofuscin vs control", "setting": "[2]", "result": "significantly decreased"}, {"measurement": "amount of ROS vs control", "setting": "[3]", "result": "significantly decreased"}, {"measurement": "cell number and morphology vs DMSO control", "setting": "[4]", "result": "exist in a great number in the presence of CP-466722 and show a spindle form"}]}
